In PMC4490784, “Compensatory induction of MYC expression by sustained CDK9 inhibition via a BRD4-dependent mechanism” (eLife, 2015):

Legend:
Assay in all cases: KINOMEscan binding assay
NEK11 = target: T1, NEK11 (Homo sapiens, UniProt Q8NG66); conditions: 1 µM i-CDK9; read-out: % Retention on Solid Support
T1 construct: purchased DiscoveRx KINOMEscan
Outline: (§1)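 We profiled i-CDK9 by active-site-directed competitive binding, testing 1 µM and 10 µM against over 400 kinases.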

PRKG2 = target: T2, PRKG2 (Homo sapiens, UniProt Q13237); conditions: read-out: % Retention on Solid Support
T2 construct: purchased DiscoveRx KINOMEscan
T2 sequence (Q13237 whole entry): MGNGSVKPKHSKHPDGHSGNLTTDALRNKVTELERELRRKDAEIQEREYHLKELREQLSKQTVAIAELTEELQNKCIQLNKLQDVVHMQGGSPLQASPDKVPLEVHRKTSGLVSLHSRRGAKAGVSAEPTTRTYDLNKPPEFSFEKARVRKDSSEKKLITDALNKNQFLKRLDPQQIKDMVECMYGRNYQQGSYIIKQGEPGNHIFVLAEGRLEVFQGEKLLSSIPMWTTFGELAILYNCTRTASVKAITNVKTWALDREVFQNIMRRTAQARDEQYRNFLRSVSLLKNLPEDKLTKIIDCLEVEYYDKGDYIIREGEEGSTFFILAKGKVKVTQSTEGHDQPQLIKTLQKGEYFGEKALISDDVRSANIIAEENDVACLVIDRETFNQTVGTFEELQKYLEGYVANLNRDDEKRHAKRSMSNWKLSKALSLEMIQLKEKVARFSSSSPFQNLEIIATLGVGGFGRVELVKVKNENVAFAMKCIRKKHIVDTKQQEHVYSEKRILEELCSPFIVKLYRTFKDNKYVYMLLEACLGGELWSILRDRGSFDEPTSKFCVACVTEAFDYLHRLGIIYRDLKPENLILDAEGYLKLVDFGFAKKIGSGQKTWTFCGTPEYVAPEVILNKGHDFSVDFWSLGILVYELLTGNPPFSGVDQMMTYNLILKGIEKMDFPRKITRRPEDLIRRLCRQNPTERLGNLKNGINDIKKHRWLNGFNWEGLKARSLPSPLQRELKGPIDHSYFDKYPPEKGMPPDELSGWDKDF
Outline: as §1

RIPK5 = target: T3, RIPK5 (Homo sapiens, UniProt Q6XUX3); conditions: 1 µM i-CDK9; read-out: % Retention on Solid Support
T3 construct: purchased DiscoveRx KINOMEscan
Outline: as §1

PIK3CD = target: T4, PIK3CD (Homo sapiens, UniProt O00329); conditions: read-out: % Retention on Solid Support
T4 construct: purchased DiscoveRx KINOMEscan
T4 sequence (O00329 whole entry): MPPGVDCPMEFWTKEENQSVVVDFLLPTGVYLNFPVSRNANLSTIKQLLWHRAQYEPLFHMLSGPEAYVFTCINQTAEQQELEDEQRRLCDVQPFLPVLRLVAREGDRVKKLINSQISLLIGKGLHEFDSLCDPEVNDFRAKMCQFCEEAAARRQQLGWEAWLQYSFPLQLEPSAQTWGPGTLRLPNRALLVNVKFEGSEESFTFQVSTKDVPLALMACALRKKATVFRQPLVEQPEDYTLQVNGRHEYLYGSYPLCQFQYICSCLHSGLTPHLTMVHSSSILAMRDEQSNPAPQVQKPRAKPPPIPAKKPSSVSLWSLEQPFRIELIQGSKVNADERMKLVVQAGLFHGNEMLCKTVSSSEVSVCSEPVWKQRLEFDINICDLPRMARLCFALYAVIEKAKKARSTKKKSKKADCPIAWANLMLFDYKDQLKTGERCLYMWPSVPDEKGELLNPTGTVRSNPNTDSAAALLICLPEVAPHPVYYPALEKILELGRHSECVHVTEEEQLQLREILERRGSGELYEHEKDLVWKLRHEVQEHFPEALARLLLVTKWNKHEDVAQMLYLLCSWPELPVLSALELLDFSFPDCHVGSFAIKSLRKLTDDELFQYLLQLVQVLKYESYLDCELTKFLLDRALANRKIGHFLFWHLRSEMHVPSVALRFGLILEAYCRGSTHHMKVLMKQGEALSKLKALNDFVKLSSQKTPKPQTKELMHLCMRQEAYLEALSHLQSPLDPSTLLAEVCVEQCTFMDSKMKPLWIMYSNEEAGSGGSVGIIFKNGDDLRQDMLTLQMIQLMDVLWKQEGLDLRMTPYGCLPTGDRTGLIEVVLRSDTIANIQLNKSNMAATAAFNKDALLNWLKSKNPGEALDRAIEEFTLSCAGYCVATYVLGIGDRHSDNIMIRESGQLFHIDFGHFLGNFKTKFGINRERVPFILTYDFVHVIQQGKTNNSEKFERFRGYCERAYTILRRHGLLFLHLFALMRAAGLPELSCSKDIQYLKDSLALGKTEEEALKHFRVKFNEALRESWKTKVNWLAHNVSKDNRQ
Outline: as §1

PRKCE = target: T5, PRKCE (Homo sapiens, UniProt Q02156); conditions: read-out: % Retention on Solid Support
T5 construct: purchased DiscoveRx KINOMEscan
T5 sequence (Q02156 whole entry): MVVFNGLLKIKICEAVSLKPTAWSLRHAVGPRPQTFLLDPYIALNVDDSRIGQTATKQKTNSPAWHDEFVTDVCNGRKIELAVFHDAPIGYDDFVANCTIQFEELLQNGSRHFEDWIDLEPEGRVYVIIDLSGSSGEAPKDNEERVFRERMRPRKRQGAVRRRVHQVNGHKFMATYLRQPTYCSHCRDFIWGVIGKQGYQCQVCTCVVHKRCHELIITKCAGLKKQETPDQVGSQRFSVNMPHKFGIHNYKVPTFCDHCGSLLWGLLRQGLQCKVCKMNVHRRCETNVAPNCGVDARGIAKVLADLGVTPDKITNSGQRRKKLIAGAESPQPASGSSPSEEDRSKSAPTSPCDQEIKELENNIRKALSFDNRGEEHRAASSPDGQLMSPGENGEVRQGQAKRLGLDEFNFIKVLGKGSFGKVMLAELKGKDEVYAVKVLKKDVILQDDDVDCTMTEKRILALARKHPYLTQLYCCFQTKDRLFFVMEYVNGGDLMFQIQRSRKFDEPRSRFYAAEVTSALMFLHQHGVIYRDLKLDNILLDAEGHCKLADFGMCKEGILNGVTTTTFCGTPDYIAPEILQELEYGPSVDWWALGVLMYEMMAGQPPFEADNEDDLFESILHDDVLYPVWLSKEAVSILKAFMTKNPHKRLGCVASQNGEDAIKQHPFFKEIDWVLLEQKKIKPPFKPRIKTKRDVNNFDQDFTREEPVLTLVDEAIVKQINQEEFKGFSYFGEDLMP
Outline: as §1

BRK = target: T6, BRK (Homo sapiens, UniProt Q13882); conditions: read-out: % Retention on Solid Support
T6 construct: purchased DiscoveRx KINOMEscan
Outline: as §1

[1] = target: T7, ABL1(E255K)-nonphosphorylated (Homo sapiens, UniProt P00519, E255K); conditions: 10 µM i-CDK9; read-out: % Retention on Solid Support
T7 construct: purchased DiscoveRx KINOMEscan
Outline: as §1

ERBB4 = target: T8, ERBB4 (Homo sapiens, UniProt Q15303); conditions: read-out: % Retention on Solid Support
T8 construct: purchased DiscoveRx KINOMEscan
Outline: as §1

LIMK1 = target: T9, LIMK1 (Homo sapiens, UniProt P53667); conditions: read-out: % Retention on Solid Support
T9 construct: purchased DiscoveRx KINOMEscan
Outline: as §1

TGFBR2 = target: T10, TGFBR2 (Homo sapiens, UniProt P37173); conditions: read-out: % Retention on Solid Support
T10 construct: purchased DiscoveRx KINOMEscan
Outline: as §1

FLT3(R834Q) = target: T11, FLT3(R834Q) (Homo sapiens, UniProt P36888, R834Q); conditions: 1 µM i-CDK9; read-out: % Retention on Solid Support
T11 construct: purchased DiscoveRx KINOMEscan
Outline: as §1

AMPK-alpha1 = target: T12, AMPK-alpha1 (Homo sapiens, UniProt Q13131); conditions: read-out: % Retention on Solid Support
T12 construct: purchased DiscoveRx KINOMEscan
Outline: as §1

MAP3K1 = target: T13, MAP3K1 (Homo sapiens, UniProt Q13233); conditions: read-out: % Retention on Solid Support
T13 construct: purchased DiscoveRx KINOMEscan
Outline: as §1

NEK7 = target: T14, NEK7 (Homo sapiens, UniProt Q8TDX7); conditions: read-out: % Retention on Solid Support
T14 construct: purchased DiscoveRx KINOMEscan
T14 sequence (Q8TDX7 whole entry): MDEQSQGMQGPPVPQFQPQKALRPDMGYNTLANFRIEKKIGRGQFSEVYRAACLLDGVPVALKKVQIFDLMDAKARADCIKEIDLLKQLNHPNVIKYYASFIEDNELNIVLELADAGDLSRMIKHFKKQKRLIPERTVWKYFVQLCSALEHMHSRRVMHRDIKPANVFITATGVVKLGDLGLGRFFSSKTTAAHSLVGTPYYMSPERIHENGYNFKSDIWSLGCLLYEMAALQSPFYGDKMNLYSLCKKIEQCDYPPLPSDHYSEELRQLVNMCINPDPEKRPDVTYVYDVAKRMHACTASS
Outline: as §1

DMPK2 = target: T15, DMPK2 (Homo sapiens, UniProt Q6DT37); conditions: read-out: % Retention on Solid Support
T15 construct: purchased DiscoveRx KINOMEscan
Outline: as §1

[2] = target: T16, RSK2(Kin.Dom.1-N-terminal) (Homo sapiens, UniProt P51812); conditions: read-out: % Retention on Solid Support
T16 construct: RSK2(Kin.Dom.1-N-terminal); purchased DiscoveRx KINOMEscan
Outline: as §1

KIT = target: T17, KIT (Homo sapiens, UniProt P10721); conditions: read-out: % Retention on Solid Support
T17 construct: purchased DiscoveRx KINOMEscan
Outline: as §1

YSK4 = target: T18, YSK4 (Homo sapiens, UniProt Q56UN5); conditions: read-out: % Retention on Solid Support
T18 construct: purchased DiscoveRx KINOMEscan
T18 sequence (Q56UN5 whole entry): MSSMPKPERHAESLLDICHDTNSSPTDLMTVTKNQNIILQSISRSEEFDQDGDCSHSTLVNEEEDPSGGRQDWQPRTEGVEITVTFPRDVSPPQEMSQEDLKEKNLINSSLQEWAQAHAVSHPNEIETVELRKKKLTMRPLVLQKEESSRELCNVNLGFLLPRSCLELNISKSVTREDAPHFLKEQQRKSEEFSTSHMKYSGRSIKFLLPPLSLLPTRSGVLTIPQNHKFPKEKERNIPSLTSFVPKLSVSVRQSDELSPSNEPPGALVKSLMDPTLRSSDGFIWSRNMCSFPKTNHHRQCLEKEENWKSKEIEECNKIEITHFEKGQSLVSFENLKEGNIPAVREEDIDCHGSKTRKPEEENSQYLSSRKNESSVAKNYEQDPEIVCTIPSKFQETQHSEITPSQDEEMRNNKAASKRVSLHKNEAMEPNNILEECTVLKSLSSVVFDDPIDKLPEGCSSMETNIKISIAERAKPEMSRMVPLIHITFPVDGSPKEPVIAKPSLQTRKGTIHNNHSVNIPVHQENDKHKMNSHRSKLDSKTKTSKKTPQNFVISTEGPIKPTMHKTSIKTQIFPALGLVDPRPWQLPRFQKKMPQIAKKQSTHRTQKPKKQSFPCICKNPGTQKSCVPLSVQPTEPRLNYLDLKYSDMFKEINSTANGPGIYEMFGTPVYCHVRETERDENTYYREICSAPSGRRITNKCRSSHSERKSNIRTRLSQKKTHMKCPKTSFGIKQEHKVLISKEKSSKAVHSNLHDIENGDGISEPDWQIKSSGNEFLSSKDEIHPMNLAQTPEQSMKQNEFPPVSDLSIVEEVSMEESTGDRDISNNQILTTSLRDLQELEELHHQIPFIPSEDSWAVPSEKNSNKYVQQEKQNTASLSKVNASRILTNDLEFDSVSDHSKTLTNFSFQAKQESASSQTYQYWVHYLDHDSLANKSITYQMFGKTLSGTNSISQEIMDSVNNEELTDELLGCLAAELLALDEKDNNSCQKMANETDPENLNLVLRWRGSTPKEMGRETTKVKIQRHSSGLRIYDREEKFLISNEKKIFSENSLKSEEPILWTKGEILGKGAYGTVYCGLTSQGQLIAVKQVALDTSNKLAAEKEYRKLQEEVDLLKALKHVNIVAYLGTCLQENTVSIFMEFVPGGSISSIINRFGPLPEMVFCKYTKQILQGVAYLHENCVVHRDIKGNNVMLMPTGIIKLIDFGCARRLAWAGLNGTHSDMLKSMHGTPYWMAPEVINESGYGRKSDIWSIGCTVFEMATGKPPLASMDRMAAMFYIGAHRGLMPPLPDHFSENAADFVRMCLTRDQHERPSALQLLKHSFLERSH
Outline: as §1

KIT(A829P) = target: T19, KIT(A829P) (Homo sapiens, UniProt P10721, A829P); conditions: 1 µM i-CDK9; read-out: % Retention on Solid Support
T19 construct: purchased DiscoveRx KINOMEscan
Outline: as §1

AAK1 = target: T20, AAK1 (Homo sapiens, UniProt Q2M2I8); conditions: read-out: % Retention on Solid Support
T20 construct: purchased DiscoveRx KINOMEscan
Outline: as §1

MAP3K4 = target: T21, MAP3K4 (Homo sapiens, UniProt Q9Y6R4); conditions: read-out: % Retention on Solid Support
T21 construct: purchased DiscoveRx KINOMEscan
Outline: as §1

PAK2 = target: T22, PAK2 (Homo sapiens, UniProt Q13177); conditions: read-out: % Retention on Solid Support
T22 construct: purchased DiscoveRx KINOMEscan
Outline: as §1

MAP4K5 = target: T23, MAP4K5 (Homo sapiens, UniProt Q9Y4K4); conditions: read-out: % Retention on Solid Support
T23 construct: purchased DiscoveRx KINOMEscan
Outline: as §1

MARK2 = target: T24, MARK2 (Homo sapiens, UniProt Q7KZI7); conditions: read-out: % Retention on Solid Support
T24 construct: purchased DiscoveRx KINOMEscan
T24 sequence (Q7KZI7 whole entry): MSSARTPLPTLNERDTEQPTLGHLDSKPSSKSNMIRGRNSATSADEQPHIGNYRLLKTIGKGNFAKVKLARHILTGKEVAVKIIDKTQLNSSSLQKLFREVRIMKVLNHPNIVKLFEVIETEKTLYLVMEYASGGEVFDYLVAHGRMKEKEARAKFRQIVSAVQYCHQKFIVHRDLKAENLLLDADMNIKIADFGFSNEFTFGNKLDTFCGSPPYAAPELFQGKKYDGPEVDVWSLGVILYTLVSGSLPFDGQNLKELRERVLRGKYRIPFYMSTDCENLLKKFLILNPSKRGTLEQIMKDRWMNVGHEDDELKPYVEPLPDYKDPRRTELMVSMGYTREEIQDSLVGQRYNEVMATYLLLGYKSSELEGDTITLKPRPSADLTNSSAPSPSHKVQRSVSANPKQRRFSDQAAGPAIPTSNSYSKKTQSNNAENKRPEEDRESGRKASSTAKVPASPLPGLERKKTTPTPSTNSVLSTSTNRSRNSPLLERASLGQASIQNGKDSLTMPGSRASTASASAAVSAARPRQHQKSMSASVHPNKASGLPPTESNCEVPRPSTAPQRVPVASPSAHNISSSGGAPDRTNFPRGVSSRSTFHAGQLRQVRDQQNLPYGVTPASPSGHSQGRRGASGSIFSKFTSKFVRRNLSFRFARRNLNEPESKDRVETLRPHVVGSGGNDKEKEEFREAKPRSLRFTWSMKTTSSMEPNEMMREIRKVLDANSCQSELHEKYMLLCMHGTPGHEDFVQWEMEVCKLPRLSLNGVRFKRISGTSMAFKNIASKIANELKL
Outline: as §1

EGFR(L861Q) = target: T25, EGFR(L861Q) (Homo sapiens, UniProt P00533, L861Q)
T25 construct: purchased DiscoveRx KINOMEscan
Outline: as §1

CDKL2 = target: T26, CDKL2 (Homo sapiens, UniProt Q92772); conditions: read-out: % Retention on Solid Support
T26 construct: purchased DiscoveRx KINOMEscan
Outline: as §1

NLK = target: T27, NLK (Homo sapiens, UniProt Q9UBE8); conditions: read-out: % Retention on Solid Support
T27 construct: purchased DiscoveRx KINOMEscan
Outline: as §1

TGFBR1 = target: T28, TGFBR1 (Homo sapiens, UniProt P36897); conditions: read-out: % Retention on Solid Support
T28 construct: purchased DiscoveRx KINOMEscan
Outline: as §1

CSNK1G1 = target: T29, CSNK1G1 (Homo sapiens, UniProt Q9HCP0)
T29 construct: purchased DiscoveRx KINOMEscan
Outline: as §1

N[C@H]1CC[C@H](Nc2cc(-c3cccc(NCc4cccc(F)c4)n3)c(Cl)cn2)CC1 [i-CDK9, N2′-(trans-4-aminocyclohexyl)-5′-chloro-N6-(3-fluorobenzyl)-2,4′-bipyridine-2′,6-diamine]
remaining binding at 1 µM (NEK11): 100%
remaining binding at 1 µM (PRKG2; 1 µM i-CDK9): 100%
remaining binding at 10 µM (PRKG2; 10 µM i-CDK9): 100%
remaining binding at 1 µM (RIPK5): 100%
remaining binding at 1 µM (PIK3CD; 1 µM i-CDK9): 100%
remaining binding at 10 µM (PIK3CD; 10 µM i-CDK9): 100%
remaining binding at 1 µM (PRKCE; 1 µM i-CDK9): 100%
remaining binding at 10 µM (PRKCE; 10 µM i-CDK9): 100%
remaining binding at 1 µM (BRK; 1 µM i-CDK9): 70%
remaining binding at 10 µM (BRK; 10 µM i-CDK9): 100%
remaining binding at 10 µM [1]: 100%
remaining binding at 1 µM (ERBB4; 1 µM i-CDK9): 100%
remaining binding at 10 µM (ERBB4; 10 µM i-CDK9): 100%
remaining binding at 1 µM (LIMK1; 1 µM i-CDK9): 90%
remaining binding at 10 µM (LIMK1; 10 µM i-CDK9): 100%
remaining binding at 1 µM (TGFBR2; 1 µM i-CDK9): 87%
remaining binding at 10 µM (TGFBR2; 10 µM i-CDK9): 100%
remaining binding at 1 µM (FLT3(R834Q)): 36%
remaining binding at 1 µM (AMPK-alpha1; 1 µM i-CDK9): 84%
remaining binding at 10 µM (AMPK-alpha1; 10 µM i-CDK9): 93%
remaining binding at 1 µM (MAP3K1; 1 µM i-CDK9): 93%
remaining binding at 10 µM (MAP3K1; 10 µM i-CDK9): 100%
remaining binding at 1 µM (NEK7; 1 µM i-CDK9): 100%
remaining binding at 10 µM (NEK7; 10 µM i-CDK9): 100%
remaining binding at 1 µM (DMPK2; 1 µM i-CDK9): 100%
remaining binding at 10 µM (DMPK2; 10 µM i-CDK9): 100%
remaining binding at 1 µM ([2]; 1 µM i-CDK9): 86%
remaining binding at 10 µM ([2]; 10 µM i-CDK9): 76%
remaining binding at 1 µM (KIT; 1 µM i-CDK9): 91%
remaining binding at 10 µM (KIT; 10 µM i-CDK9): 100%
remaining binding at 1 µM (YSK4; 1 µM i-CDK9): 100%
remaining binding at 10 µM (YSK4; 10 µM i-CDK9): 68%
remaining binding at 1 µM (KIT(A829P)): 100%
remaining binding at 1 µM (AAK1; 1 µM i-CDK9): 100%
remaining binding at 10 µM (AAK1; 10 µM i-CDK9): 100%
remaining binding at 1 µM (MAP3K4; 1 µM i-CDK9): 87%
remaining binding at 10 µM (MAP3K4; 10 µM i-CDK9): 96%
remaining binding at 1 µM (PAK2; 1 µM i-CDK9): 98%
remaining binding at 10 µM (PAK2; 10 µM i-CDK9): 91%
remaining binding at 1 µM (MAP4K5; 1 µM i-CDK9): 94%
remaining binding at 10 µM (MAP4K5; 10 µM i-CDK9): 85%
remaining binding at 1 µM (MARK2; 1 µM i-CDK9): 76%
remaining binding at 10 µM (MARK2; 10 µM i-CDK9): 86%
% Retention on Solid Support (EGFR(L861Q); 1 µM i-CDK9): 78%
% Retention on Solid Support (EGFR(L861Q); 10 µM i-CDK9): 74%
remaining binding at 1 µM (CDKL2; 1 µM i-CDK9): 80%
remaining binding at 10 µM (CDKL2; 10 µM i-CDK9): 14%
remaining binding at 1 µM (NLK; 1 µM i-CDK9): 100%
remaining binding at 10 µM (NLK; 10 µM i-CDK9): 91%
remaining binding at 1 µM (TGFBR1; 1 µM i-CDK9): 95%
remaining binding at 10 µM (TGFBR1; 10 µM i-CDK9): 100%
% Retention on Solid Support (CSNK1G1; 1 µM i-CDK9): 81%
% Retention on Solid Support (CSNK1G1; 10 µM i-CDK9): 93%
